Assay results: patent publication US20180273534A1, “PYRAZOLOPYRIDINE SULFONAMIDES AS NEMATICIDES” (BAYER CROPSCIENCE AKTIENGESELLSCHAFT, priority 2014, published 2018)

Tests used:
Format in all cases: in vivo
Meloidogyne incognita [1] = test: Meloidogyne incognita test (sand, salad seedlings, gall formation); conditions: application rate 20 ppm, after 14 days, 100% = no galls, 0% = galls equal to untreated control
Procedure: Meloidogyne Incognita—Test
Solvent: 125.0 parts by weight of acetone
To produce a suitable preparation of active compound, 1 part by weight of active compound is mixed with the stated amount of solvent, and the concentrate is diluted with water to the desired concentration.
Vessels are filled with sand, a solution of the active ingredient, a suspension containing eggs and larvae of the southern root-knot nematode (Meloidogyne incognita) and salad seeds. The salad seeds germinate and the seedlings grow. Galls develop in the roots.
After 14 days the nematicidal activity is determined on the basis of the percentage of gall formation. 100% means no galls were found and 0% means the number of galls found on the roots of the treated plants was equal to that in untreated control plants.

Tetranychus urticae = Tetranychus urticae spray test OP-resistant; conditions: application rate 500 g/ha, after 6 days, sprayed French bean leaf disks, 100% = all spider mites killed
Procedure: Tetranvechus urticae—spray test OP-resistant
(§1) Solvent: 78.0 parts by weight acetone • 1.5 parts by weight dimethylformamide
(§2) Emulsifier: alkylarylpolyglycol ether
(§3) To produce a suitable preparation of active compound, 1 part by weight of active compound is mixed with the stated amount of solvents and is diluted with water, containing an emulsifier concentration of 1000 ppm, to the desired concentration. Further test concentrations are prepared by dilution with emulsifier containing water.
French bean (Phaseolus vulgaris) leaf disks which are heavily infested with all stages of the two spotted spidermite (Tetranychus urticae), are sprayed with a preparation of the active ingredient of the desired concentration.
After 6 days mortality in % is determined. 100% means all spider mites have been killed and 0% means none of the spider mites have been killed.

Myzus persicae = Myzus persicae spray test; conditions: application rate 500 g/ha; after 6 days; sprayed Chinese cabbage leaf disks; 100% = all aphids killed
Procedure: Myzus Persicae—Spray Test
as §1, §2, §3
Chinese cabbage (Brassica pekinensis) leaf disks infected with all instars of the green peach aphid (Myzus persicae), are sprayed with a preparation of the active ingredient of the desired concentration.
After 6 days mortality in % is determined. 100% means all aphids have been killed and 0% means none of the aphids have been killed.

Meloidogyne incognita [2] = test: Meloidogyne incognita test (soil drench, loamy sand, gall formation); conditions: application rate 8 ppm, after 21 days, salad seedlings, 100% = no galls
Procedure: Meloidogyne incognita—Test
Solvent: 7 parts by weight of dimethylformamide
Emulsifier: 2.5 parts by weight of alkylarylpolyglycolether
To produce a suitable preparation of active compound, 1 part by weight of active compound is mixed with the stated amount of solvent and emulsifier and is diluted with water to the desired concentration. In the calculation of the concentration the soil volume has to be included. […] Further test concentrations are prepared by dilution with water.
The compound solution is poured into pots filled with soil (loamy sand). A suspension containing eggs and larvae of the southern root-knot nematode (Meloidogyne incognita) is added, salad seeds are spread on the soil surface and covered with quartz sand. The salad seeds germinate and the seedlings grow. Galls develop on the roots.
After 21 days the nematicidal activity is determined on the basis of the percentage of gall formation. 100% means no galls were found; 0% means the number of galls found on the roots of the treated plants was equal to that in untreated control plants.

With `CS(=O)(=O)NC(=O)c1cc2c(Cl)cc(C(F)(F)F)cn2n1` [Example I-15] the “nematicidal activity on the basis of the percentage of gall formation” value (Meloidogyne incognita [1]) was 90%, the mortality (Tetranychus urticae) was 85% and the mortality (Myzus persicae) was 100%.
With `O=C(NS(=O)(=O)c1ccccc1Cl)c1cc2cc(Cl)cc(Cl)n2n1` [Example I-46] the “nematicidal activity on the basis of the percentage of gall formation” value (Meloidogyne incognita [1]) was 90% and the mortality (Myzus persicae) was 90%.
For `O=C(NS(=O)(=O)c1cc(Cl)ccc1Cl)c1cc2cc(Cl)cc(Cl)n2n1` [Example I-47], the “nematicidal activity on the basis of the percentage of gall formation” value (Meloidogyne incognita [2]) was 80%.
